Molecules are shown by their SMILES. Values after ≈ are worked out from the molar mass of the structure shown.

In one assay the test system is Candida parapsilosis. Description: Antifungal activity against Candida parapsilosis GIM 2.190 assessed as inhibition of fungal growth by CLSI M27-A3 guidelines based method. It counts as functional. To be noted: Lodderomyces parapsilosis.
With `CN(Cc1ccc(N2CCN(Cc3ccc(-c4ccccc4)cc3)CC2)cc1)CC(O)(Cn1cncn1)c1ccc(F)cc1F` (centres undefined), the MIC80 (commonly an inhibitory concentration at the 80% level, which refers to growth in some studies and to a panel of isolates in others) was found to be 0.025 µg/mL (≈ 0.0411 µM).
On the same count and under the same terms, under `CN(Cc1ccc(N2CCN(Cc3ccc(F)cc3)CC2)cc1)CC(O)(Cn1cncn1)c1ccc(F)cc1F` (centres undefined) stands 0.2 µg/mL (≈ 0.363 µM); under `Cc1ccc(CN2CCN(c3ccc(CN(C)CC(O)(Cn4cncn4)c4ccc(F)cc4F)cc3)CC2)cc1` (centres undefined), 0.4 µg/mL (≈ 0.732 µM); under `CN(Cc1ccc(N2CCN(Cc3c(F)cccc3Br)CC2)cc1)CC(O)(Cn1cncn1)c1ccc(F)cc1F` (centres undefined), 0.013 µg/mL (≈ 0.0207 µM).
On the same count and under the same terms, under `CC(=O)N1CCN(c2ccc(CN(C)CC(O)(Cn3cncn3)c3ccc(F)cc3F)cc2)CC1` (centres undefined) stands 0.1 µg/mL (≈ 0.206 µM); under `COc1ccc(CN2CCN(c3ccc(CN(C)CC(O)(Cn4cncn4)c4ccc(F)cc4F)cc3)CC2)cc1` (centres undefined), 0.1 µg/mL (≈ 0.178 µM).
Same read-out and setting: for `CN1CCN(c2ccc(CN(C)CC(O)(Cn3cncn3)c3ccc(F)cc3F)cc2)CC1` (centres undefined) the value was 8 µg/mL (≈ 17.5 µM).

A further assay relates to Candida albicans. Description: Antifungal activity against Candida albicans GIM 2.194 assessed as inhibition of fungal growth by CLSI M27-A3 guidelines based method. Type of assay: functional.
Details: not given
As for `CN(Cc1ccc(N2CCN(Cc3ccc(-c4ccccc4)cc3)CC2)cc1)CC(O)(Cn1cncn1)c1ccc(F)cc1F` (centres undefined), the MIC80 is 0.025 µg/mL (≈ 0.0411 µM).
Still for that read-out and setting: for `CN(Cc1ccc(N2CCN(Cc3ccc(F)cc3)CC2)cc1)CC(O)(Cn1cncn1)c1ccc(F)cc1F` (centres undefined) the value was 0.05 µg/mL (≈ 0.0908 µM).
The same measure, in the same setting: for `Cc1ccc(CN2CCN(c3ccc(CN(C)CC(O)(Cn4cncn4)c4ccc(F)cc4F)cc3)CC2)cc1` (centres undefined) the value was 0.2 µg/mL (≈ 0.366 µM); for `CN(Cc1ccc(N2CCN(Cc3c(F)cccc3Br)CC2)cc1)CC(O)(Cn1cncn1)c1ccc(F)cc1F` (centres undefined), 0.1 µg/mL (≈ 0.159 µM).
Still for that read-out and setting: for `CC(=O)N1CCN(c2ccc(CN(C)CC(O)(Cn3cncn3)c3ccc(F)cc3F)cc2)CC1` (centres undefined) the value was 0.1 µg/mL (≈ 0.206 µM).
Regarding `COc1ccc(CN2CCN(c3ccc(CN(C)CC(O)(Cn4cncn4)c4ccc(F)cc4F)cc3)CC2)cc1` (centres undefined), the MIC80 amounted to 0.1 µg/mL (≈ 0.178 µM).
The same measure, in the same setting: for `CN1CCN(c2ccc(CN(C)CC(O)(Cn3cncn3)c3ccc(F)cc3F)cc2)CC1` (centres undefined) the value was 8 µg/mL (≈ 17.5 µM).

For a further assay, the system named is Candida albicans. Description: Antifungal activity against Candida albicans SC5314 assessed as inhibition of fungal growth by CLSI M27-A3 guidelines based method. Type of assay: functional.
Details: not given
As to `CN(Cc1ccc(N2CCN(Cc3ccc(-c4ccccc4)cc3)CC2)cc1)CC(O)(Cn1cncn1)c1ccc(F)cc1F` (centres undefined), the MIC80 was determined as 0.025 µg/mL (≈ 0.0411 µM).
On the same count and under the same terms, under `CN(Cc1ccc(N2CCN(Cc3ccc(F)cc3)CC2)cc1)CC(O)(Cn1cncn1)c1ccc(F)cc1F` (centres undefined) stands 0.1 µg/mL (≈ 0.182 µM).
For the compound `Cc1ccc(CN2CCN(c3ccc(CN(C)CC(O)(Cn4cncn4)c4ccc(F)cc4F)cc3)CC2)cc1` (centres undefined), the MIC80 worked out at 0.2 µg/mL (≈ 0.366 µM).
The same measure, in the same setting: for `CN(Cc1ccc(N2CCN(Cc3c(F)cccc3Br)CC2)cc1)CC(O)(Cn1cncn1)c1ccc(F)cc1F` (centres undefined) the value was 0.013 µg/mL (≈ 0.0207 µM).
The same measure, in the same setting: for `CC(=O)N1CCN(c2ccc(CN(C)CC(O)(Cn3cncn3)c3ccc(F)cc3F)cc2)CC1` (centres undefined) the value was 0.5 µg/mL (≈ 1.03 µM).
The same measure, in the same setting: for `COc1ccc(CN2CCN(c3ccc(CN(C)CC(O)(Cn4cncn4)c4ccc(F)cc4F)cc3)CC2)cc1` (centres undefined) the value was 0.5 µg/mL (≈ 0.889 µM); for `CN1CCN(c2ccc(CN(C)CC(O)(Cn3cncn3)c3ccc(F)cc3F)cc2)CC1` (centres undefined), 8 µg/mL (≈ 17.5 µM).

Another assay relates to Pichia kudriavzevii. Description: Antifungal activity against Candida krusei GIM 2.1 assessed as inhibition of fungal growth by CLSI M27-A3 guidelines based method. It counts as functional.
Details: not given
With `CN(Cc1ccc(N2CCN(Cc3ccc(-c4ccccc4)cc3)CC2)cc1)CC(O)(Cn1cncn1)c1ccc(F)cc1F` (centres undefined), the MIC80 stood at 0.2 µg/mL (≈ 0.329 µM).
As to `CN(Cc1ccc(N2CCN(Cc3ccc(F)cc3)CC2)cc1)CC(O)(Cn1cncn1)c1ccc(F)cc1F` (centres undefined), the MIC80 was found to be 0.2 µg/mL (≈ 0.363 µM).
Same read-out and setting: under `Cc1ccc(CN2CCN(c3ccc(CN(C)CC(O)(Cn4cncn4)c4ccc(F)cc4F)cc3)CC2)cc1` (centres undefined) stands 0.8 µg/mL (≈ 1.46 µM); under `CN(Cc1ccc(N2CCN(Cc3c(F)cccc3Br)CC2)cc1)CC(O)(Cn1cncn1)c1ccc(F)cc1F` (centres undefined), 0.1 µg/mL (≈ 0.159 µM); under `CC(=O)N1CCN(c2ccc(CN(C)CC(O)(Cn3cncn3)c3ccc(F)cc3F)cc2)CC1` (centres undefined), 16 µg/mL (≈ 33 µM).
The same measure, in the same setting: for `COc1ccc(CN2CCN(c3ccc(CN(C)CC(O)(Cn4cncn4)c4ccc(F)cc4F)cc3)CC2)cc1` (centres undefined) the value was 0.8 µg/mL (≈ 1.42 µM); for `CN1CCN(c2ccc(CN(C)CC(O)(Cn3cncn3)c3ccc(F)cc3F)cc2)CC1` (centres undefined), more than 32 µg/mL.

For another assay, the system named is Nakaseomyces glabratus. Description: Antifungal activity against Candida glabrata assessed as inhibition of fungal growth by CLSI M27-A3 guidelines based method. Type of assay: functional.
Details: not given
As for `CN(Cc1ccc(N2CCN(Cc3ccc(-c4ccccc4)cc3)CC2)cc1)CC(O)(Cn1cncn1)c1ccc(F)cc1F` (centres undefined), the MIC80 came out at 0.4 µg/mL (≈ 0.657 µM).
On the same count and under the same terms, under `CN(Cc1ccc(N2CCN(Cc3ccc(F)cc3)CC2)cc1)CC(O)(Cn1cncn1)c1ccc(F)cc1F` (centres undefined) stands 0.8 µg/mL (≈ 1.45 µM); under `Cc1ccc(CN2CCN(c3ccc(CN(C)CC(O)(Cn4cncn4)c4ccc(F)cc4F)cc3)CC2)cc1` (centres undefined), 1.6 µg/mL (≈ 2.93 µM); under `CN(Cc1ccc(N2CCN(Cc3c(F)cccc3Br)CC2)cc1)CC(O)(Cn1cncn1)c1ccc(F)cc1F` (centres undefined), 0.2 µg/mL (≈ 0.318 µM).
For the compound `CC(=O)N1CCN(c2ccc(CN(C)CC(O)(Cn3cncn3)c3ccc(F)cc3F)cc2)CC1` (centres undefined), the MIC80 worked out at 16 µg/mL (≈ 33 µM).
The same measure, in the same setting: for `COc1ccc(CN2CCN(c3ccc(CN(C)CC(O)(Cn4cncn4)c4ccc(F)cc4F)cc3)CC2)cc1` (centres undefined) the value was 3.2 µg/mL (≈ 5.69 µM); for `CN1CCN(c2ccc(CN(C)CC(O)(Cn3cncn3)c3ccc(F)cc3F)cc2)CC1` (centres undefined), more than 32 µg/mL.

In the next assay the test system is Cryptococcus neoformans. Description: Antifungal activity against Cryptococcus neoformans CGMCC 2.3161 assessed as inhibition of fungal growth by CLSI M27-A3 guidelines based method. Type of assay: functional.
Details: not given
Regarding `CN(Cc1ccc(N2CCN(Cc3ccc(-c4ccccc4)cc3)CC2)cc1)CC(O)(Cn1cncn1)c1ccc(F)cc1F` (centres undefined), the MIC80 is 0.3 µg/mL (≈ 0.493 µM).
Take `CN(Cc1ccc(N2CCN(Cc3ccc(F)cc3)CC2)cc1)CC(O)(Cn1cncn1)c1ccc(F)cc1F` (centres undefined): the MIC80 is 0.8 µg/mL (≈ 1.45 µM).
With `Cc1ccc(CN2CCN(c3ccc(CN(C)CC(O)(Cn4cncn4)c4ccc(F)cc4F)cc3)CC2)cc1` (centres undefined), the MIC80 was determined as 3.2 µg/mL (≈ 5.85 µM).
Turning to `CN(Cc1ccc(N2CCN(Cc3c(F)cccc3Br)CC2)cc1)CC(O)(Cn1cncn1)c1ccc(F)cc1F` (centres undefined), the MIC80 worked out at 0.1 µg/mL (≈ 0.159 µM).
`CC(=O)N1CCN(c2ccc(CN(C)CC(O)(Cn3cncn3)c3ccc(F)cc3F)cc2)CC1` (centres undefined): the MIC80 is 8 µg/mL (≈ 16.5 µM).
On the same count and under the same terms, for `COc1ccc(CN2CCN(c3ccc(CN(C)CC(O)(Cn4cncn4)c4ccc(F)cc4F)cc3)CC2)cc1` (centres undefined) the value was 0.8 µg/mL (≈ 1.42 µM).
Take `CN1CCN(c2ccc(CN(C)CC(O)(Cn3cncn3)c3ccc(F)cc3F)cc2)CC1` (centres undefined): the MIC80 was more than 32 µg/mL.

For another assay, the system named is Candida tropicalis. Description: Antifungal activity against Candida tropicalis GIM 2.183 assessed as inhibition of fungal growth by CLSI M27-A3 guidelines based method. It counts as functional.
Details: not given
For the compound `CN(Cc1ccc(N2CCN(Cc3ccc(-c4ccccc4)cc3)CC2)cc1)CC(O)(Cn1cncn1)c1ccc(F)cc1F` (centres undefined), the MIC80 was determined as 0.013 µg/mL (≈ 0.0214 µM).
The same measure, in the same setting: for `CN(Cc1ccc(N2CCN(Cc3ccc(F)cc3)CC2)cc1)CC(O)(Cn1cncn1)c1ccc(F)cc1F` (centres undefined) the value was 0.1 µg/mL (≈ 0.182 µM); for `Cc1ccc(CN2CCN(c3ccc(CN(C)CC(O)(Cn4cncn4)c4ccc(F)cc4F)cc3)CC2)cc1` (centres undefined), 0.2 µg/mL (≈ 0.366 µM); for `CN(Cc1ccc(N2CCN(Cc3c(F)cccc3Br)CC2)cc1)CC(O)(Cn1cncn1)c1ccc(F)cc1F` (centres undefined), 0.013 µg/mL (≈ 0.0207 µM).
Still for that read-out and setting: under `CC(=O)N1CCN(c2ccc(CN(C)CC(O)(Cn3cncn3)c3ccc(F)cc3F)cc2)CC1` (centres undefined) stands 0.5 µg/mL (≈ 1.03 µM); under `COc1ccc(CN2CCN(c3ccc(CN(C)CC(O)(Cn4cncn4)c4ccc(F)cc4F)cc3)CC2)cc1` (centres undefined), 0.2 µg/mL (≈ 0.355 µM); under `CN1CCN(c2ccc(CN(C)CC(O)(Cn3cncn3)c3ccc(F)cc3F)cc2)CC1` (centres undefined), 4 µg/mL (≈ 8.76 µM).

Values taken from ChEMBL document CHEMBL6092162, “Identification of novel and potent triazoles targeting CYP51 for antifungal: Design, synthesis, and biological study” (Eur J Med Chem, 2024).
